These results are taken from ChEMBL document CHEMBL4017513, “Structure-Activity Relationships of Potent, Targeted Covalent Inhibitors That Abolish Both the Transamidation and GTP Binding Activities of Human Tissue Transglutaminase” (J Med Chem, 2017).

Peptide text beside a SMILES is read from it. * marks the point of attachment. Cbz = O=C(OCc1ccccc1)*; Acryloyl = C=CC(=O)*

The target of assay [1] is T1, Protein-glutamine gamma-glutamyltransferase (Homo sapiens) (UniProt P21980).
T1 sequence (whole entry): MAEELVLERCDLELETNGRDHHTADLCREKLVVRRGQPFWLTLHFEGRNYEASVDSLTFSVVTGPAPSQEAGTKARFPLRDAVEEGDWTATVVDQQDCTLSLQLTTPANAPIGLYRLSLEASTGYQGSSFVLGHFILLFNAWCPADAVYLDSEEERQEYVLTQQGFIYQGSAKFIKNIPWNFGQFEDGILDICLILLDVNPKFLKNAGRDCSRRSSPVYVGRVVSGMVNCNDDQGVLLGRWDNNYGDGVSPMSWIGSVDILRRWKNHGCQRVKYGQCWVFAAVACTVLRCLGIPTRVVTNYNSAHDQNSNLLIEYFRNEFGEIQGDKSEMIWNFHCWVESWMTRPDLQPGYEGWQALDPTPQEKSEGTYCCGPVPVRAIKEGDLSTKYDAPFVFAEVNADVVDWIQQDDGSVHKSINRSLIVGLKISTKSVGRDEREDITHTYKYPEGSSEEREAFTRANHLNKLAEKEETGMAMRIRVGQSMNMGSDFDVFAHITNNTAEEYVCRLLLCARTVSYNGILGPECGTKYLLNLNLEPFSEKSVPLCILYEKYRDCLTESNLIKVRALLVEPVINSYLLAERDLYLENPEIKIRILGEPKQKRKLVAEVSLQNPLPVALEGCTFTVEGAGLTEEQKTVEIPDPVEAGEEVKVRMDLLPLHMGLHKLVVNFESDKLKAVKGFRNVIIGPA
The assay is described as follows: Ratio of kinact to Ki for human TG2 by double reciprocal plot method.

Assay [2] deals with T1, Protein-glutamine gamma-glutamyltransferase (Homo sapiens). The assay is described as follows: (§1) Irreversible inhibition of human TG2 using AL5 as substrate by double reciprocal plot method.
Assay [3] deals with T2, Protein-glutamine gamma-glutamyltransferase (Homo sapiens, UniProt P21980).
T2 sequence (P21980 whole entry): T1 sequence (whole entry)
Described as §1.

The target in assay [4] is T1, Protein-glutamine gamma-glutamyltransferase (Homo sapiens). The assay is described as follows: (§2) Irreversible inhibition of human TG2 using AL5 as substrate by colorimetric assay.
The target of assay [5] is T2, Protein-glutamine gamma-glutamyltransferase. The description is as §2.
For assay [6], the target named is T1, Protein-glutamine gamma-glutamyltransferase (Homo sapiens). Kind of assay: Ratio of kinact to Ki for human TG2 by colorimetric assay.
The nature of assay [7]: Inhibition of human ECS cells invasion by using Engelbreth-Holm-Swarm mouse tumor matrigel measured after 18 hrs by DAPI staining-based flourescence microscopy. It is filed as functional, cell-based.
For assay [8], the species on record is Cavia porcellus. Kind of assay: Ratio of Kinact to Ki for guinea pig liver TG2.
Assay [9] can be described thus: Inhibition of guinea pig liver TG2 using Z-Gln-Gly/DMPDA as substrate preincubated for 3 mins followed by protein addition. Set-up: species or system Cavia porcellus.

As for `C=CC(=O)NCCC[C@H](NC(=O)OCc1ccccc1)C(=O)N1CCN(S(=O)(=O)c2cccc3c(N(C)C)cccc23)CC1`, the Ratio in assay [1] was 24.7 ×10³ /M/min. For the same molecule, the Kinact in assay [2] came to 1.18 min⁻¹. Moreover, the Ki in [3] was 47.7 µM.

In turn, `C=CC(=O)NCCCC[C@H](NC(=O)OCc1ccccc1)C(=O)N1CCN(S(=O)(=O)C(C)C)CC1` showed a Kinact in assay [4] of 0.5 min⁻¹. The molecule further showed a Ki in assay [5] of 9.1 µM. Further, in assay [6], the Ratio amounted to 54.7 ×10³ /M/min.

As to `C=CC(=O)NCCCC[C@H](NC(=O)OCc1ccccc1)C(=O)N1CCN(C(=O)c2ccc3ccccc3c2)CC1`, in [4], the Kinact is 1.21 min⁻¹. The same molecule gave a Ki in assay [5] of 13.4 µM. Besides, the Ratio in assay [6] is 90.3 ×10³ /M/min.

On to `C=CC(=O)NCCCC[C@H](NC(=O)OCc1ccccc1)C(=O)N1CCN(S(=O)(=O)C2CCCCC2)CC1`, for which the Kinact in assay [4] stood at 0.69 min⁻¹. This molecule also came in with a Ki in [5] of 11 µM. Moreover, the Ratio in assay [6] stood at 62.9 ×10³ /M/min.

In [4], `C=CC(=O)NCCCC[C@H](NC(=O)OCc1ccccc1)C(=O)N1CCN(c2ccccc2Cl)CC1` gave a Kinact of 0.97 min⁻¹. The same molecule displayed a Ki in [5] of 17.4 µM. Moreover, the Ratio in [6] amounted to 56 ×10³ /M/min.

In turn, `C=CC(=O)NCCCC[C@H](NC(=O)OCc1ccccc1)C(=O)N1CCN(C(=O)c2cccnc2)CC1` had a Kinact in [4] of 1.44 min⁻¹. In [5], this molecule yielded a Ki of 23.4 µM. Further, the Ratio in [6] was determined as 61.4 ×10³ /M/min.

In [4], `C=CC(=O)NCCCC[C@H](NC(=O)OCc1ccccc1)C(=O)N1CCOCC1` registered a Kinact of 1.47 min⁻¹. Besides, the Ki in [5] was determined as 28.9 µM. Also, the Ratio in assay [6] was 51 ×10³ /M/min.

What is called EC50 is the concentration needed to bring the measured effect to its halfway point. Low readings indicate higher potency in that assay, high ones lower potency in that assay. For `C=CC(=O)NCCCC[C@H](NC(=O)OCc1ccccc1)C(=O)N1CCN(S(=O)(=O)c2cccc3c(N(C)C)cccc23)CC1`, the Ki in [5] came out at 12.9 µM. Besides, the EC50 in [7] was found to be 3.9 µM.

Molecule `C=CC(=O)NCCCC[C@H](NC(=O)OCc1ccccc1)C(=O)N1CCN(C(=O)Cc2ccccc2)CC1` displayed a Kinact in assay [4] of 2.26 min⁻¹. The molecule further registered a Ki in assay [5] of 20 µM. Further, the Ratio in assay [6] is 113 ×10³ /M/min.

`C=CC(=O)NCCCC[C@H](NC(=O)OCc1ccccc1)C(=O)N1CCN(C(=O)c2ccccc2)CC1`: in [4], the Kinact was 4.77 min⁻¹. In assay [5], this molecule displayed a Ki of 36.6 µM. For the same molecule, in [6], the Ratio was found to be 130 ×10³ /M/min.

As to `C=CC(=O)NCCCC[C@H](NC(=O)OCc1ccccc1)C(=O)NCC(=O)OC` (Cbz-Lys(Acryloyl)-Gly-OMe), the Kinact in assay [4] was found to be 1.45 min⁻¹. The molecule further gave a Ki in assay [5] of 40 µM. Also, in assay [6], the Ratio turned out to be 36.2 ×10³ /M/min.

Consider `C=CC(=O)NCCCC[C@H](NC(=O)OCc1ccccc1)C(=O)NCCCNS(=O)(=O)c1cccc2c(N(C)C)cccc12`, for which the Ratio in assay [1] came out at 27.6 ×10³ /M/min. This molecule gave a Kinact in [2] of 0.85 min⁻¹. This molecule also registered a Ki in assay [3] of 30.5 µM.

As to `C=CC(=O)NCCCC[C@H](NC(=O)OCc1ccccc1)C(N)=O`, the Ratio in assay [1] was determined as 30.7 ×10³ /M/min. Moreover, the Kinact in assay [2] was 1.08 min⁻¹. The Ki in assay [3] turned out to be 35.1 µM.

Take `C=CC(=O)NCCCC[C@H](NC(=O)OCc1ccccc1)C(=O)N1CCN(C(=O)c2ccncc2)CC1`: in assay [4], the Kinact worked out at 1.43 min⁻¹. In assay [5], this molecule returned a Ki of 38.7 µM. In addition, in assay [6], the Ratio turned out to be 37 ×10³ /M/min.

Regarding `C=CC(=O)NCCCC[C@H](NC(=O)OCc1ccccc1)C(=O)N1CCN(S(=O)(=O)CC)CC1`, in assay [4], the Kinact is 1.42 min⁻¹. Also, in assay [5], the Ki stood at 36 µM. Further, the Ratio in [6] is 39.4 ×10³ /M/min.

Regarding `C=CC(=O)NCCCC[C@H](NC(=O)OCc1ccccc1)C(=O)N1CCN(S(C)(=O)=O)CC1`, the Kinact in assay [4] was determined as 0.5 min⁻¹. The same molecule yielded a Ki in [5] of 6.4 µM. Moreover, the Ratio in assay [6] was determined as 78.4 ×10³ /M/min.

As to `C=CC(=O)NCCCC[C@H](NC(=O)OCc1ccccc1)C(=O)N1CCN(C(=O)c2cc3ccc(O)cc3oc2=O)CC1`, in assay [4], the Kinact came to 0.69 min⁻¹. The molecule also returned a Ki in assay [5] of 11.2 µM. Besides, the Ratio in [6] was determined as 62.1 ×10³ /M/min.

`C=CC(=O)NCCCC[C@H](NC(=O)OCc1ccccc1)C(=O)N1CCN(S(=O)(=O)Cc2ccccc2)CC1`: the Kinact in assay [4] was found to be 0.47 min⁻¹. The Ki in assay [5] was 14.7 µM. Moreover, the Ratio in [6] was found to be 34.9 ×10³ /M/min.

Take `C=CC(=O)NCCCC[C@H](NC(=O)OCc1ccccc1)C(=O)N1CCN(C(=O)c2cccc3ccccc23)CC1`: the Ki in [5] turned out to be 8.9 µM.

Turning to `C=CC(=O)NCCCC[C@H](NC(=O)OCc1ccccc1)C(=O)NCCCCNS(=O)(=O)c1cccc2c(N(C)C)cccc12`, the Ratio in assay [1] worked out at 80.8 ×10³ /M/min. Also, the Kinact in assay [2] amounted to 2.19 min⁻¹. In addition, in assay [3], the Ki was determined as 27.1 µM.

`C=CC(=O)NCCCC[C@H](NC(=O)OCc1ccccc1)C(=O)NCC(=O)O` (Cbz-Lys(Acryloyl)-Gly-OH) yielded a Kinact in [4] of 1.26 min⁻¹. Moreover, the figures for the Ki in [5] and in assay [9] were 48.1 µM and 0.15 µM, respectively. The Ratio in assay [8] was determined as 3 ×10⁶ /M/min; in assay [6], 26.1 ×10³ /M/min.

`C=CC(=O)NCCCC[C@H](NC(=O)OCc1ccccc1)C(=O)N1CCN(S(=O)(=O)c2cccc3ccccc23)CC1` returned a Kinact in assay [4] of 0.39 min⁻¹. For the same molecule, the Ki in assay [5] amounted to 10.4 µM. For the same molecule, the Ratio in [6] came out at 37.2 ×10³ /M/min.

In turn, `C=CC(=O)NCCCC[C@H](NC(=O)OCc1ccccc1)C(=O)N1CCN(S(=O)(=O)c2ccccc2)CC1` showed a Kinact in assay [4] of 0.47 min⁻¹. The molecule further displayed a Ki in [5] of 8.8 µM. Further, the Ratio in [6] came out at 53.3 ×10³ /M/min.

On to `C=CC(=O)NCCCC[C@H](NC(=O)OCc1ccccc1)C(=O)O`, for which the Ki in assay [5] is 60.3 µM; in [9] it was 0.52 µM.

Molecule `C=CC(=O)NCCCC[C@H](NC(=O)OCc1ccccc1)C(=O)N1CCN(S(=O)(=O)c2cccs2)CC1` registered a Kinact in assay [4] of 1.48 min⁻¹. In assay [5], this molecule gave a Ki of 40.1 µM. Also, in [6], the Ratio amounted to 36.8 ×10³ /M/min.

In assay [4], `C=CC(=O)NCCCC[C@H](NC(=O)OCc1ccccc1)C(=O)N1CCN(C(=O)c2ccccn2)CC1` returned a Kinact of 2.93 min⁻¹. This molecule gave a Ki in assay [5] of 32.1 µM. In addition, the Ratio in assay [6] came out at 91.3 ×10³ /M/min.

Take `C=CC(=O)NCCCC[C@H](NC(=O)OCc1ccccc1)C(=O)N1CCN(S(=O)(=O)c2ccc3ccccc3c2)CC1`: in assay [4], the Kinact was 0.38 min⁻¹. Further, the Ki in assay [5] was found to be 6.7 µM. In assay [6], the Ratio was determined as 57.3 ×10³ /M/min.

Regarding `C=CC(=O)NCCCC[C@H](NC(=O)OCc1ccccc1)C(=O)N1CCN(C(C)=O)CC1`, in [4], the Kinact amounted to 2.06 min⁻¹. This molecule yielded a Ki in [5] of 52.1 µM. Also, the Ratio in assay [6] worked out at 36.9 ×10³ /M/min.

Take `C=CC(=O)NCCCC[C@H](NC(=O)OCc1ccccc1)C(=O)NCCNS(=O)(=O)c1cccc2c(N(C)C)cccc12`: the Ratio in [1] came to 61.5 ×10³ /M/min. In assay [2], this molecule had a Kinact of 1.45 min⁻¹. Moreover, the Ki in assay [3] turned out to be 23.5 µM.
